US7279444B2, “Substituted benzoylpyrazoles” (Bayer CropScience GmbH, priority 1999, dated 2007)
Marks after values point to notes of the source that are not given here.

test: log P by HPLC on reversed-phase column (C 18), acidic range; format: physicochemical; conditions: not given
Method: Temperature: 43° C. […] The log P values given in Table 3 were determined in accordance with EEC Directive 79/831 Annex V.A8 by HPLC (High Performance Liquid Chromatography) on a reversed-phase column (C 18). Temperature: 43° C. […] The log P values given in Tables 4 were determined in accordance with EEC Directive 79/831 Annex V.A8 by HPLC (High Performance Liquid Chromatography) on a reversed-phase column (C 18). Temperature: 43° C.

Row | Structure (SMILES) | logP
1 | CCSc1nn(Cc2cc(C(F)(F)F)ccc2C(=O)c2cnn(CC)c2O)c(=O)n1C [Example 5] | logP = 2.58^a)
2 | CCn1ncc(C(=O)c2ccc(C(F)(F)F)cc2Cn2nc(SC(C)C)n(C)c2=O)c1O [Example 6] | logP = 2.90^a)
3 | CCOc1nn(Cc2cc(F)ccc2C(=O)c2c(C)nn(C)c2O)c(=O)n1C1CC1 [Example 11] | (IA)logP = 1.80^a)
4 | C=CCSc1nn(Cc2cc(Br)ccc2C(=O)c2cnn(CC)c2O)c(=O)n1C [Example 12] | (IA)logP = 2.69^a)
5 | CCn1ncc(C(=O)c2ccccc2-n2nc(C(F)(F)F)n(C)c2=O)c1O [Example 15] | logP = 1.95^a)
6 | CCn1ncc(C(=O)c2ccc(Cl)cc2-n2nc(C(F)(F)F)n(C)c2=O)c1O [Example 16] | logP = 2.47^a)
7 | CCn1ncc(C(=O)c2ccc(Cl)c(Cn3nc(C(F)(F)F)n(C)c3=O)c2Cl)c1O [Example 17] | logP = 2.30^a)
8 | CCn1ncc(C(=O)c2ccc(Cl)c(Cn3nc(SC)n(C)c3=O)c2Cl)c1O [Example 18] | logP = 1.91^a)
9 | CCOc1nn(Cc2c(Cl)ccc(C(=O)c3cnn(CC)c3O)c2Cl)c(=O)n1C [Example 19] | logP = 2.01^a)
10 | CCn1ncc(C(=O)c2ccc(Cl)c(Cn3nc(C4CC4)n(C4CC4)c3=O)c2Cl)c1O [Example 20] | (IB)logP = 2.14^a)
11 | CCn1ncc(C(=O)c2ccc(Cl)c(Cn3nc(OC)n(C)c3=O)c2Cl)c1O [Example 21] | logP = 1.69^a)
12 | CCn1ncc(C(=O)c2ccc(Cl)c(Cn3nc(OCC(F)(F)F)n(C)c3=O)c2Cl)c1O [Example 23] | logP = 2.33^a)
13 | CCn1ncc(C(=O)c2ccc(Cl)c(Cn3nc(Br)n(C)c3=O)c2Cl)c1O [Example 24] | logP = 1.81^a)
14 | CCn1ncc(C(=O)c2ccc(Cl)c(Cn3nc(C4CC4)n(C)c3=O)c2Cl)c1O [Example 26] | (IB)logP = 1.82^a)
15 | CCn1ncc(C(=O)c2ccc(Br)cc2-n2nc(C(F)(F)F)n(C)c2=O)c1O [Example 27] | logP = 2.55^a)
16 | CCn1ncc(C(=O)c2ccc(Cl)c(Cn3nc4n(c3=O)CCCC4)c2Cl)c1O [Example 30] | logP = 1.55^a)
17 | CCn1ncc(C(=O)c2ccc(Cl)c(Cn3nc(OCC(F)(F)F)n(C4CC4)c3=O)c2Cl)c1O [Example 34] | (IB)logP = 2.65^a)
18 | CCn1ncc(C(=O)c2ccc(Cl)c(Cn3nc(N(C)C)n(C4CC4)c3=O)c2Cl)c1O [Example 37] | (IB)logP = 2.04^a)
19 | Cc1nn(C)c(O)c1C(=O)c1ccc(Cl)c(Cn2nc(Br)n(C)c2=O)c1Cl [Example 39] | logP = 1.52^a)
20 | CCOc1nn(Cc2c(Cl)ccc(C(=O)c3c(C)nn(CC)c3O)c2Cl)c(=O)n1C [Example 42] | logP = 2.02^a)
21 | CCn1nc(C)c(C(=O)c2ccc(Cl)c(Cn3nc(Br)n(C)c3=O)c2Cl)c1O [Example 44] | logP = 1.81^a)

Row | Structure (SMILES) | logP
22 | CCn1nc(C)c(C(=O)c2ccc(Cl)c(Cn3nc(C)n(C)c3=O)c2Cl)c1O [Example 45] | logP = 1.40^a)
23 | CCOc1nn(Cc2c(Cl)ccc(C(=O)c3c(C)nn(C(C)(C)C)c3O)c2Cl)c(=O)n1C [Example 47] | logP = 3.44^a)
24 | COc1nn(Cc2c(Cl)ccc(C(=O)c3c(C)nn(C(C)(C)C)c3O)c2Cl)c(=O)n1C [Example 48] | logP = 3.02^a)
25 | CSc1nn(Cc2c(Cl)ccc(C(=O)c3c(C)nn(C)c3O)c2Cl)c(=O)n1C [Example 51] | logP = 1.66^a)
26 | CCOc1nn(Cc2c(Cl)ccc(C(=O)c3c(C)nn(C)c3O)c2Cl)c(=O)n1C [Example 52] | logP = 1.76^a)
27 | COc1nn(Cc2c(Cl)ccc(C(=O)c3c(C)nn(C)c3O)c2Cl)c(=O)n1C [Example 53] | logP = 1.48^a)
28 | Cc1nn(C)c(O)c1C(=O)c1ccc(Cl)c(Cn2nc(C)n(C)c2=O)c1Cl [Example 54] | logP = 1.20^a)
29 | CSc1nn(Cc2c(Cl)ccc(C(=O)c3cnn(C)c3O)c2Cl)c(=O)n1C [Example 55] | logP = 1.67^a)
30 | Cc1nn(Cc2c(Cl)ccc(C(=O)c3cnn(C)c3O)c2Cl)c(=O)n1C [Example 58] | logP = 1.19^a)
31 | CCn1ncc(C(=O)c2ccc(Cn3nc(SC)n(C)c3=O)c(OC)c2[N+](=O)[O-])c1O [Example 60] | logP = 1.92^a)
32 | CCn1ncc(C(=O)c2ccc(Cl)c(Cn3nc(SC)n(C)c3=O)c2F)c1O [Example 62] | logP = 1.99^a)
33 | CCn1ncc(C(=O)c2ccc(C(F)(F)F)cc2Cn2nc(COC)n(C)c2=O)c1O [Example 65] | logP =1.98^a)
34 | CCn1ncc(C(=O)c2ccc(C(F)(F)F)cc2Cn2nc(OC)n(C)c2=O)c1O [Example 66] | logP = 2.27^a)
35 | CCn1ncc(C(=O)c2ccc(S(C)(=O)=O)cc2Cn2nc(C(F)(F)F)n(C)c2=O)c1O [Example 67] | logP = 1.60^a)
36 | CCn1ncc(C(=O)c2ccc(S(C)(=O)=O)cc2Cn2nc(OCC(F)(F)F)n(C)c2=O)c1O [Example 68] | logP = 1.73^a)
37 | CCn1ncc(C(=O)c2ccc(F)c(Cn3nc(C)n(C)c3=O)c2Cl)c1O [Example 69] | logP = 1.76^a)
38 | CCn1ncc(C(=O)c2ccc(Cl)c(CN3CCN(C)C3=O)c2Cl)c1O [ID-1] | logP = 1.64^a)
39 | CCn1ncc(C(=O)c2ccc(Cl)c(CN3CCCN(C)C3=O)c2Cl)c1O [ID-2] | logP = 1.77^a)
40 | CN1CCCN(Cc2c(Cl)ccc(C(=O)c3cnn(C)c3O)c2Cl)C1=O [ID-3] | logP = 1.52^a)
41 | CCn1nc(C)c(C(=O)c2ccc(Cl)c(CN3CCCN(C)C3=O)c2Cl)c1O [ID-5] | logP = 1.72^a)

Results, then the molecule that gave them:

Row | logP | Structure (SMILES)
42 | logP = 1.24^a) | CCn1ncc(C(=O)c2ccc(S(C)(=O)=O)cc2Cn2nc(SC)n(C)c2=O)c1O [Example 4]
43 | (IA)logP = 2.28^a) | CCn1ncc(C(=O)c2ccc(C(F)(F)F)cc2Cn2nc(OC)n(C3CC3)c2=O)c1O [Example 7]
44 | logP = 1.61^a) | CCn1ncc(C(=O)c2ccc(F)cc2Cn2nc(N(C)C)n(C)c2=O)c1O [Example 8]
45 | logP = 1.32^a) | Cc1nn(C)c(O)c1C(=O)c1ccc(F)cc1Cn1nc(N(C)C)n(C)c1=O [Example 9]
46 | (IA)logP = 1.50^a) | COc1nn(Cc2cc(F)ccc2C(=O)c2c(C)nn(C)c2O)c(=O)n1C1CC1 [Example 10]
47 | logP = 2.83^a) | CCn1ncc(C(=O)c2cc(-n3nc(C(F)(F)F)n(C)c3=O)ccc2C(F)(F)F)c1O [Example 13]
48 | logP = 2.31^a) | CCn1ncc(C(=O)c2ccc(Cl)c(Cn3nc(OC(C)C)n(C)c3=O)c2Cl)c1O [Example 22]
49 | logP = 1.28^a) | CCn1ncc(C(=O)c2ccc(Cl)c(Cn3ncn(C)c3=O)c2Cl)c1O [Example 25]
50 | logP = 1.77^a) | CCn1ncc(C(=O)c2ccc(Cl)c(Cn3nc(N(C)C)n(C)c3=O)c2Cl)c1O [Example 28]
51 | logP = 1.38^a) | CCn1ncc(C(=O)c2ccc(Cl)c(Cn3nc(C)n(C)c3=O)c2Cl)c1O [Example 29]
52 | (IB)logP = 1.99^a) | CCn1ncc(C(=O)c2ccc(Cl)c(Cn3nc(OC)n(C4CC4)c3=O)c2Cl)c1O [Example 31]
53 | (IB)logP = 2.31^a) | CCOc1nn(Cc2c(Cl)ccc(C(=O)c3cnn(CC)c3O)c2Cl)c(=O)n1C1CC1 [Example 32]
54 | (IB)logP = 4.64^a) | CCn1ncc(C(=O)c2ccc(Cl)c(Cn3nc(OC(C)C)n(C4CC4)c3=O)c2Cl)c1O [Example 33]
55 | (IB)logP = 2.27^a) | CCn1ncc(C(=O)c2ccc(Cl)c(Cn3nc(SC)n(C4CC4)c3=O)c2Cl)c1O [Example 35]
56 | (IB)logP = 1.64^a) | CCn1ncc(C(=O)c2ccc(Cl)c(Cn3nc(C)n(C4CC4)c3=O)c2Cl)c1O [Example 36]
57 | (IB)logP = 2.16^a) | CCOn1c(CC)nn(Cc2c(Cl)ccc(C(=O)c3cnn(CC)c3O)c2Cl)c1=O [Example 38]
58 | logP = 1.53^a) | Cn1ncc(C(=O)c2ccc(Cl)c(Cn3nc(Br)n(C)c3=O)c2Cl)c1O [Example 40]
59 | logP = 1.91^a) | CCn1nc(C)c(C(=O)c2ccc(Cl)c(Cn3nc(SC)n(C)c3=O)c2Cl)c1O [Example 41]
60 | logP = 1.71^a) | CCn1nc(C)c(C(=O)c2ccc(Cl)c(Cn3nc(OC)n(C)c3=O)c2Cl)c1O [Example 43]
61 | logP = 3.30^a) | CSc1nn(Cc2c(Cl)ccc(C(=O)c3c(C)nn(C(C)(C)C)c3O)c2Cl)c(=O)n1C [Example 46]
62 | logP = 3.19^a) | Cc1nn(C(C)(C)C)c(O)c1C(=O)c1ccc(Cl)c(Cn2nc(Br)n(C)c2=O)c1Cl [Example 49]
63 | logP = 2.53^a) | Cc1nn(C(C)(C)C)c(O)c1C(=O)c1ccc(Cl)c(Cn2nc(C)n(C)c2=O)c1Cl [Example 50]
64 | logP = 1.77^a) | CCOc1nn(Cc2c(Cl)ccc(C(=O)c3cnn(C)c3O)c2Cl)c(=O)n1C [Example 56]
65 | logP = 1.48^a) | COc1nn(Cc2c(Cl)ccc(C(=O)c3cnn(C)c3O)c2Cl)c(=O)n1C [Example 57]
66 | logP = 1.99^a) | CCOc1nn(Cc2ccc(C(=O)c3cnn(CC)c3O)c([N+](=O)[O-])c2OC)c(=O)n1C [Example 59]
67 | logP = 1.80^a) | CCn1ncc(C(=O)c2ccc(C(F)(F)F)cc2Cn2nc(C)n(C)c2=O)c1O [Example 64]
68 | logP = 1.76^a) | CCn1ncc(C(=O)c2ccc(F)c(Cn3nc(SC)n(C)c3=O)c2Cl)c1O [Example 70]
69 | logP = 1.55^a) | CCn1ncc(C(=O)c2ccc(F)c(Cn3nc(OC)n(C)c3=O)c2Cl)c1O [Example 71]
70 | logP = 1.62^a) | CCn1ncc(C(=O)c2ccc(F)c(Cn3nc(N(C)C)n(C)c3=O)c2Cl)c1O [Example 72]
71 | logP = 1.50^a) | Cc1nn(C)c(O)c1C(=O)c1ccc(Cl)c(CN2CCCN(C)C2=O)c1Cl [ID-4]

same assay, conditions: reversed-phase HPLC column (C 18); pH=2

Row | chromatographic logP | Structure (SMILES)
72 | 2.63 | CCn1ncc(C(=O)c2ccc(-n3nc(C(F)(F)F)n(C)c3=O)cc2Cl)c1O [Example 1, 4-methyl-5-trifluoromethyl-2-[3-chloro-4-(1-ethyl-5-hydroxy-pyrazol-4-yl-carbonyl)-phenyl]-2,4-dihydro-3H-1,2,4-triazol-3-one]
